The values that follow come from ChEMBL document CHEMBL1201862, “PubChem BioAssay data set” (2004).

What all share (experiment): NCI anticancer screen, dose series, 48 h
The test system of test [1] is 786-0.
In test [2] the test system is CCRF-CEM.
For test [3], the system named is DU-145.
In test [4] the test system is EKVX.
In test [5] the test system is HOP-92.
The subject of test [6] is KM12.
Test [7] deals with MCF7.
Test [8] relates to MDA-MB-435.
Test [9] concerns NCI-H460.
Test [10] concerns NCI/ADR-RES.
Test [11] relates to OVCAR-3.
Test [12] relates to OVCAR-8.
Test [13] relates to RXF 393.
In test [14] the test system is SF-268.
Test [15] relates to SF-295.
Test [16] deals with SK-MEL-28.
The test system of test [17] is SK-MEL-5.
The subject of test [18] is SN12C.
The subject of test [19] is T47D.
Test [20] concerns UO-31.

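Values below derive from 48-hour exposures of cells grown in 96-well plates, with endpoints linearly interpolated between the two concentrations bracketing the appropriate inhibition level. GI50: concentration for 50% inhibition of growth.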 The source made the active and inactive calls. Rule as the data show it: active = GI50 up to about 1.1 µM and inactive = higher.

With `CN(CCCNC(=O)c1n[nH]c2c1ccc1ccccc12)CCCNC(=O)c1n[nH]c2c1ccc1ccccc12`, the GI50 in test [1] is 10.9 µM (inactive); in test [2] it was 11.1 µM (inactive); in [3], 15.7 µM (inactive); in test [4], 21.4 µM (inactive); in test [5], 14.6 µM (inactive); in test [6], 16.9 µM (inactive). Besides, the GI50 is 15 µM (inactive) in test [7]; 2.62 µM (inactive) in [8]; 18 µM (inactive) in test [9]; > 100 µM (inactive) in test [10]; 13.8 µM (inactive) in test [11]; 16.4 µM (inactive) in test [12]. Also, the GI50 in test [13] was 14.4 µM (inactive); in test [14], 14.7 µM (inactive); in test [15] it was 17.3 µM (inactive); in [16], 2.09 µM (inactive); in test [17] it was 4.68 µM (inactive); in [18], 16.3 µM (inactive). Also, the GI50 is 16 µM (inactive) in test [19] and 14.6 µM (inactive) in test [20].

On to `C#CCOC(=O)C(=[N+]=[N-])C(=O)CC(C)C`, for which the GI50 in test [1], in test [2], in test [3], in [4], in test [5] and in [6] was > 10 µM (inactive) throughout. The GI50 in test [7], in test [8], in test [9], in test [10], in [11] and in test [12] was > 10 µM (inactive) in each case. Besides, the GI50 in [13], in [14], in [15], in test [16], in test [17] and in [18] was > 10 µM (inactive) each time. In addition, the GI50 in [19] and in test [20] was > 10 µM (inactive) throughout.

Take `O=C1OC[C@@H]2Cc3c([nH]c4ccccc34)[C@@H](c3ccc(O)cc3)N12`: the GI50 is 33.9 µM (inactive) in [1]; 30.1 µM (inactive) in test [2]; 40.3 µM (inactive) in test [3]; 36.3 µM (inactive) in test [4]; 96.8 µM (inactive) in test [5]; 22.8 µM (inactive) in test [6]. In addition, the GI50 was 36.6 µM (inactive) in [7]; 24.7 µM (inactive) in test [8]; 28.7 µM (inactive) in test [9]; 34.7 µM (inactive) in test [10]; 17.4 µM (inactive) in [11]; 30.1 µM (inactive) in test [12]. The GI50 is 17.3 µM (inactive) in test [13]; 42.6 µM (inactive) in [14]; 26.4 µM (inactive) in test [15]; 54.6 µM (inactive) in test [16]; 17.2 µM (inactive) in test [17]; 41.1 µM (inactive) in [18]. Further, the GI50 was 51.5 µM (inactive) in test [19] and 30.6 µM (inactive) in [20].

With `Cc1ccc(Nc2nnc(-c3ccc4c(c3)OCO4)o2)c(C)c1`, the GI50 in test [1] is 41.4 µM (inactive); in test [3] it was > 100 µM (inactive); in test [4], 82 µM (inactive); in test [5], 41.9 µM (inactive); in [6] it was > 100 µM (inactive); in test [7], 38.8 µM (inactive). Moreover, the GI50 was > 100 µM (inactive) in test [8]; > 100 µM (inactive) in [9]; > 100 µM (inactive) in [10]; > 100 µM (inactive) in test [11]; 55.1 µM (inactive) in test [12]; > 100 µM (inactive) in [13]. Further, the GI50 in test [14] was 64.4 µM (inactive); in [15] it was > 100 µM (inactive); in test [16], > 100 µM (inactive); in test [17] it was > 100 µM (inactive); in test [18], > 100 µM (inactive); in [19], 36.2 µM (inactive). In test [20], the GI50 is > 100 µM (inactive).

As for `Nc1c(C(=O)c2ccc(Cl)cc2)[nH]c(Nc2ccc(Cl)cc2)c1C(=S)Nc1ccccc1`, the GI50 in test [1] was 2.9 µM (inactive); in test [2], 6.27 µM (inactive); in [3] it was 5.41 µM (inactive); in test [4] it was 4.9 µM (inactive); in test [5] it was 5.21 µM (inactive); in test [6], 7.6 µM (inactive). Also, the GI50 in test [7] was 4.41 µM (inactive); in test [8], 7.14 µM (inactive); in test [9], 6.58 µM (inactive); in test [10], 2.53 µM (inactive); in test [11], 3.19 µM (inactive); in test [12], 3.12 µM (inactive). For the same molecule, the GI50 in [13] was 2.7 µM (inactive); in test [14], 4.22 µM (inactive); in [15] it was 2.38 µM (inactive); in test [16] it was 4.27 µM (inactive); in test [18], 7.71 µM (inactive); in test [19], 4.11 µM (inactive). Also, in test [20], the GI50 is 3.73 µM (inactive).

Turning to `CC1(C)CC(=O)C2(CC(CSc3ccccc3)C(CS(=O)(=O)c3ccccc3)C2)C(=O)C1` (stereo not drawn), the GI50 in test [1], in [2], in test [3], in test [4], in test [5] and in [6] was > 100 µM (inactive) each time. Besides, the GI50 in test [7], in [8], in test [10], in test [11], in test [12] and in test [13] was > 100 µM (inactive) throughout. Further, the GI50 in test [14] is > 100 µM (inactive); in test [15], > 100 µM (inactive); in [16], > 100 µM (inactive); in test [17], > 100 µM (inactive); in test [18] it was > 100 µM (inactive); in test [19], 45.5 µM (inactive). In addition, the GI50 in test [20] is > 100 µM (inactive).

`O=C1NC(NNc2ccccc2)=N/C1=C\c1ccccc1O`: the GI50 in test [1] is 62.5 µM (inactive); in test [2], 0.0183 µM (active); in [3], 67 µM (inactive); in [4] it was 66.8 µM (inactive); in test [5], 55 µM (inactive); in test [6], 33.2 µM (inactive). Besides, the GI50 was 40.4 µM (inactive) in test [7]; 71.1 µM (inactive) in [8]; 45.6 µM (inactive) in test [9]; 29.6 µM (inactive) in test [10]; 96.2 µM (inactive) in [11]; > 100 µM (inactive) in test [12]. For the same molecule, the GI50 in test [13] was 40 µM (inactive); in [14] it was > 100 µM (inactive); in test [15], 50.2 µM (inactive); in test [16], > 100 µM (inactive); in [18], 73.6 µM (inactive); in test [19] it was 34.1 µM (inactive). Also, the GI50 in test [20] was > 100 µM (inactive).

Turning to `O=C(O)CCCc1ccc2ccc3ccccc3c2c1`, the GI50 in [1] was > 100 µM (inactive); in [3], > 100 µM (inactive); in test [4] it was > 100 µM (inactive); in [5] it was 72.6 µM (inactive); in test [6], 35.6 µM (inactive); in [7], > 100 µM (inactive). For the same molecule, the GI50 in test [8] was > 100 µM (inactive); in [9], 58.3 µM (inactive); in [10], 84.3 µM (inactive); in test [11] it was 53.6 µM (inactive); in test [12], 71.9 µM (inactive); in test [13] it was 15.3 µM (inactive). In addition, the GI50 in test [14] is 66.2 µM (inactive); in test [15], 21.8 µM (inactive); in test [16], 81.8 µM (inactive); in [17] it was 55.2 µM (inactive); in test [18] it was > 100 µM (inactive); in [19], 52.8 µM (inactive). The GI50 in test [20] was 88.1 µM (inactive).

With `O=C1/C(=N/N=C(c2ccccc2)c2ccccc2)c2ccccc2-c2ccccc21`, the GI50 in test [1] is > 100 µM (inactive); in test [3] it was > 100 µM (inactive); in test [4] it was > 100 µM (inactive); in [5] it was 25.2 µM (inactive); in test [6], > 100 µM (inactive); in test [7] it was > 100 µM (inactive). Also, the GI50 in test [8] is > 100 µM (inactive); in [9], > 100 µM (inactive); in test [10] it was 54 µM (inactive); in [11], 40.8 µM (inactive); in test [12] it was > 100 µM (inactive); in [13], > 100 µM (inactive). Besides, the GI50 is > 100 µM (inactive) in test [14]; 64 µM (inactive) in test [15]; > 100 µM (inactive) in test [16]; 99.5 µM (inactive) in [17]; 71.1 µM (inactive) in test [18]; 32.8 µM (inactive) in [19]. Also, the GI50 in test [20] was 45.5 µM (inactive).

For the molecule `N#CC(O)CCOCc1ccccc1` (stereo not drawn), the GI50 in test [1] is 78.7 µM (inactive); in test [2], 35.4 µM (inactive); in [3], > 100 µM (inactive); in test [4], > 100 µM (inactive); in test [5], 65.2 µM (inactive); in [6], > 100 µM (inactive). Moreover, the GI50 in test [7] is 41.6 µM (inactive); in test [8] it was > 100 µM (inactive); in test [9], > 100 µM (inactive); in test [10], > 100 µM (inactive); in test [11], > 100 µM (inactive); in test [12], > 100 µM (inactive). Besides, the GI50 in test [14] was 5.56 µM (inactive); in test [15], > 100 µM (inactive); in [16], > 100 µM (inactive); in [17], > 100 µM (inactive); in test [18], > 100 µM (inactive); in test [19], > 100 µM (inactive). Moreover, in test [20], the GI50 is 78.7 µM (inactive).
